In one test the target is T1, FGFR1 (Homo sapiens, UniProt P11362).
T1 construct: cytoplasmic domain [398-822 (terminal) amino acids]; purchased Carna 08-133
As to the kind of experiment: FGFR1 kinase activity inhibition assay (LanthaScreen TR-FRET). In kind it is biochemical. Here is the method: (§1) PV3552) and 10 mM EDTA were added to quench the kinase reaction, and incubated at 22°C for 60 minutes. • ⑤ The reaction was measured using a PerkinElmer EnVision multimode plate reader through TR-FRET dual wavelength detection. • 1. The RFU values were copied from the Envision program. • 2. The ratio of RFU 520nm/RFU 495nm was calculated. • 3. The value of the ratio was converted to a percentage inhibition value. % Inhibition = (max-data)/(max-min) × 100 [formula] "Min" represents the ratio of the control without enzyme, "max" represents the ratio of the DMSO control, and "data" represents the ratio of the compounds in wells with different concentrations. […] "Top" refers to the maximum response, "Bottom" refers to the minimum response, and "HillSlope" refers to the slope of the curve.
Background: TR-FRET usually uses a lanthanide donor and a delayed reading to cut background.

A further test has as its target T2, FGFR3 (Homo sapiens, UniProt P22607).
T2 construct: FGFR3's cytoplasmic domain [436-806 (terminal) amino acids]; purchased Carna 08-135
The test can be described thus: FGFR3 kinase activity inhibition assay (LanthaScreen TR-FRET). The test is classed as biochemical. The following applies: for Selectivity (X) FGFR1/FGFR3: ratio of IC50 FGFR1/FGFR3, selectivity towards FGFR3. Here is the method:
as §1, with “curve. According to the same method as that in the FGFR1 kinase activity inhibition assay, the inhibitory activities against FGFR2, FGFR3 and FGFR4 were tested using FGFR2's cytoplasmic domain [399-821 (terminal) amino acids] (Carna: 08-134), FGFR3's cytoplasmic domain [436-806 (terminal) amino acids] (Carna: 08-135) and FGFR4's cytoplasmic domain [460-802 (terminal) amino acids] (Carna: 08-136), respectively. […]” for “curve.”

[1] abbreviates: FGFR1 kinase, TR-FRET, read-out: IC50 (nM) FGFR1.
The mark [2] stands for this setting: FGFR3 kinase, TR-FRET, read-out: IC50 (nM) FGFR3.

Read-outs that look alike come from different tables or passages of the source. A value given as a limit tells only on which side of the number the result lay.

T2 sequence (P22607 436-806): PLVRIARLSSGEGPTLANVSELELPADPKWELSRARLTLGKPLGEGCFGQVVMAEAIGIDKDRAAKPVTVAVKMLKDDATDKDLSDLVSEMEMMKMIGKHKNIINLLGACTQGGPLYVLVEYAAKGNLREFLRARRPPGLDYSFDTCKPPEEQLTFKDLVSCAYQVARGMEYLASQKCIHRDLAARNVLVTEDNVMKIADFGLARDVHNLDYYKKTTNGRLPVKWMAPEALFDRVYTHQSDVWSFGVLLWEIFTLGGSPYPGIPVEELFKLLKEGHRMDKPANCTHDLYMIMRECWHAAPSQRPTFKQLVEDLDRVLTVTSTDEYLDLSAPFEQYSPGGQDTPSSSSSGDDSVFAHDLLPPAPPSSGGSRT
T1 sequence (P11362 398-822): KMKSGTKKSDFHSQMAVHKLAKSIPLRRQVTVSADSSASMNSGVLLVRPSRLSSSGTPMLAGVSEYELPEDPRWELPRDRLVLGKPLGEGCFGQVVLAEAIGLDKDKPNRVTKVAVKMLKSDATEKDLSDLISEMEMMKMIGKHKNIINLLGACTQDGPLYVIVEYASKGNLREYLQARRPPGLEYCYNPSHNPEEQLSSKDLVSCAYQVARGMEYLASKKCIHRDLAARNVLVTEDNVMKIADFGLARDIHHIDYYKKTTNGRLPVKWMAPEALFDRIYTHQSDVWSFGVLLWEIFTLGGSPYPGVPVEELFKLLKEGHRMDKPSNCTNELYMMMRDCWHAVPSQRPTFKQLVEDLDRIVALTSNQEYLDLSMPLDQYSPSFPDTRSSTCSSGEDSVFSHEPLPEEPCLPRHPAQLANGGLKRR

Usually IC50 stands for the concentration needed to halve the response being measured. On to “7-methyl-5-(1-((3-(1-methyl-1H-pyrazol-4-yl)-1H-pyrazino[4,3-b]pyridin-5-yl)oxy)ethyl)pyridi no[3,4-b]pyrazine [Example 204]”, for which the IC50 is 1 to 10 nM at FGFR1 (setting [1]) and under 1 nM on FGFR3 (setting [2]). Besides, on FGFR3, the “Selectivity (X) FGFR1/FGFR3” value was “A (A represents 1 ≤ multiple X<20)”. For the compound `C[C@@H](Oc1cc(C#N)c2[nH]nc(-c3cnn(C)c3)c2c1)c1c(Cl)cncc1Cl` [Example 8], the IC50 at FGFR1 (setting [1]) and at FGFR3 (setting [2]) was over 100 nM throughout. In addition, the “Selectivity (X) FGFR1/FGFR3” value on FGFR3 is given as “A (A represents 1 ≤ multiple X<20)”. `CCCn1cc(-c2n[nH]c3c(F)cc(O[C@H](C)c4c(Cl)cncc4Cl)cc23)cn1` [Example 10]: on FGFR1, the IC50 is 10 to 100 nM. Also, on FGFR3, the IC50 lay in the range of 1 to 10 nM and the “Selectivity (X) FGFR1/FGFR3” value is on record as “A (A represents 1 ≤ multiple X<20)”. For `CC(=O)N1CCC(n2cc(-c3n[nH]c4c(F)cc(O[C@H](C)c5c(Cl)cncc5Cl)cc34)cn2)CC1` [Example 13], the IC50 lay in the range of 10 to 100 nM at FGFR1 (setting [1]) and 1 to 10 nM at FGFR3 (setting [2]). For the same compound, the “Selectivity (X) FGFR1/FGFR3” value on FGFR3 was “A (A represents 1 ≤ multiple X<20)”. Regarding `C[C@@H](Oc1cc(F)c2[nH]nc(-c3cnn(CC(N)=O)c3)c2c1)c1c(Cl)cncc1Cl` [Example 16, (R)-2-(4-(5-(1-(3,5-dichloropyridin-4-yl)ethoxy)-7-fluoro-1H-indazol-3-yl)-1H-pyrazol-1-yl)acetamide], the IC50 on FGFR1 (setting [1]) was 10 to 100 nM; on FGFR3 (setting [2]), 1 to 10 nM. In addition, the “Selectivity (X) FGFR1/FGFR3” value at FGFR3 is “A (A represents 1 ≤ multiple X<20)”. With `C[C@@H](Oc1cc(F)c2[nH]nc(-c3cnn(CCC4CCOCC4)c3)c2c1)c1c(Cl)cncc1Cl` [Example 18, (R)-5-(1-(3,5-dichloropyridin-4-yl)ethoxy)-7-fluoro-3-(1-(2-(tetrahydro-2H-pyran-4-yl)ethyl)-1H-pyrazol-4-yl)-1H-indazole], the IC50 against FGFR1 and against FGFR3 was 1 to 10 nM each time. Moreover, the “Selectivity (X) FGFR1/FGFR3” value at FGFR3 is reported as “A (A represents 1 ≤ multiple X<20)”. With `C[C@@H](Oc1cc(F)c2[nH]nc(-c3cnn(CC(=O)N4CCOCC4)c3)c2c1)c1c(Cl)cncc1Cl` [Example 19, (R)-2-(4-(5-(1-(3,5-dichloropyridin-4-yl)ethoxy)-7-fluoro-1H-indazol-3-yl)-1H-pyrazol-1-yl)-1-morpholinoetha n-1-one], the IC50 on FGFR1 (setting [1]) and on FGFR3 (setting [2]) was 10 to 100 nM each time. At FGFR3, the “Selectivity (X) FGFR1/FGFR3” value is “A (A represents 1 ≤ multiple X<20)”. For the compound `CC(Oc1ccc2[nH]nc(-c3cnn(C)c3)c2c1)c1cncc2ncccc12` (centres unmarked) [Example 108, 5-(1-((3-(1-methyl-1H-pyrazol-4-yl)-1H-indazol-5-yl)oxy)ethyl)-1,7-naphthyridine], the IC50 at FGFR3 (setting [2]) was over 100 nM.

As to `CC(Oc1ccc2[nH]nc(-c3cnn(C)c3)c2c1)c1cccc2scnc12` (centres unmarked) [Example 109], on FGFR3 (setting [2]), the IC50 fell in the range of 10 to 100 nM. On the same count and under the same terms, as for `Cc1ccc2ncccc2c1C(CO)Oc1ccc2[nH]nc(-c3cnn(C)c3)c2c1` (centres unmarked) [Example 114, 2-((3-(1-methyl-1H-pyrazol-4-yl)-1H-indazol-5-yl)oxy)-2-(6-methylquinolin-5-yl)ethan-1-ol], the figure is over 100 nM. For the compound `Cc1ccc2ncccc2c1C(C)Sc1ccc2[nH]nc(-c3cnn(C)c3)c2c1` (centres unmarked) [Example 115, 6-methyl-5-(1-((3-(1-methyl-1H-pyrazol-4-yl)-1H-indazol-5-yl)thio)ethyl)quinoline], on FGFR3 (setting [2]), the IC50 is over 100 nM. At FGFR3, `Cc1ccc2ncccc2c1C(C)Oc1cnc2[nH]nc(-c3cnn(C)c3)c2c1` (centres unmarked) [Example 117, 6-methyl-5-(1-((3-(1-methyl-1H-pyrazol-4-yl)-1H-pyrazino[3,4-b]pyridin-5-yl)oxy)ethyl)quinoline] yielded an IC50 of 10 to 100 nM. For `Cc1ccc2ncccc2c1C(=O)Oc1ccc2[nH]nc(-c3cnn(C)c3)c2c1` [Example 118], the IC50 at FGFR3 (setting [2]) is 10 to 100 nM. Still for that read-out and setting: as for `Cc1ccc2ncccc2c1C(Oc1ccc2[nH]nc(-c3cnn(C)c3)c2c1)C(F)(F)F` (centres unmarked) [Example 121, 6-methyl-5-(2,2,2-trifluoro-1-((3-(1-methyl-1H-pyrazol-4-yl)-1H-indazol-5-yl)oxy)ethyl)quinoline], the figure is over 100 nM; as for `Cc1ccc(C(C)Oc2ccc3[nH]nc(-c4cnn(C)c4)c3c2)c2cccnc12` (centres unmarked) [Example 123, 8-methyl-5-(1-((3-(1-methyl-1H-pyrazol-4-yl)-1H-indazol-5-yl)oxy)ethyl)qu inoline], over 100 nM.

For `CC(Oc1ccc2[nH]nc(-c3cnn(C)c3)c2c1)c1csc2ncccc12` (centres unmarked) [Example 125, 3-(1-((3-(1-methyl-1H-pyrazol-4-yl)-1H-indazol-5-yl)oxy)ethyl)thi eno[2,3-b]pyridine], at FGFR3 (setting [2]), the concentration for half-maximal inhibition (IC50) lay within 10 to 100 nM. `Cc1ccc2ncccc2c1C(C)Oc1cc2c(-c3cnn(C)c3)n[nH]c2cn1` (centres unmarked) [Example 131]: the IC50 on FGFR3 (setting [2]) fell in the range of 1 to 10 nM. On the same count and under the same terms, as for `CC(Oc1ccc2[nH]nc(-c3cnn(C)c3)c2c1)c1cc(C(F)(F)F)cc2nccnc12` (centres unmarked) [Example 137, 5-(1-((3-(1-methyl-1H-pyrazol-4-yl)-1H-indazol-5-yl)oxy)ethyl)-7-(trifluoromethyl)quinoxaline], the figure is 10 to 100 nM; as for `C#Cc1cc(C(C)Oc2ccc3[nH]nc(-c4cnn(C)c4)c3c2)c2nccnc2c1` (centres unmarked) [Example 146, 7-ethynyl-5-(1-((3-(1-methyl-1H-pyrazol-4-yl)-1H-indazol-5-yl)oxy)ethyl)quinoxa line], 1 to 10 nM. Regarding `CC(Oc1ccc2[nH]nc(-c3cnn(C)c3)c2c1)c1cc(N(C)C)cc2ncccc12` (centres unmarked) [Example 151], the IC50 on FGFR3 (setting [2]) lay within 10 to 100 nM. As for `CC(Oc1ccc2[nH]nc(-c3ccc(S(C)(=N)=O)nc3)c2c1)c1cccc2nccnc12` (centres unmarked) [Example 152, imino(methyl)(5-(5-(1-(quinoxalin-5-yl)ethoxy)-1H-indazol-3-yl)pyridin-2-yl)-sulfanone], the IC50 at FGFR3 (setting [2]) fell in the range of 1 to 10 nM. Turning to `CC(Oc1ccc2[nH]nc(-c3ccc(N4CCS(=N)(=O)CC4)nc3)c2c1)c1cccc2nccnc12` (centres unmarked) [Example 153], at FGFR3 (setting [2]), the IC50 was under 1 nM. Consider `CC(Oc1ccc2[nH]nc(-c3cnn(C4CCS(=N)(=O)CC4)c3)c2c1)c1cccc2nccnc12` (centres unmarked) [Example 154, 1-imino-4-(4-(5-(1-(quinoxalin-5-yl)ethoxy)-1H-indazol-3-yl)-1H-pyrazol-1-yl)hexahydro-thiopyran 1-oxide], for which, at FGFR3 (setting [2]), the IC50 was 1 to 10 nM. `CC(Oc1ccc2[nH]nc(-c3cnn(C)c3)c2c1)c1cc(C2CC2)cc2ncccc12` (centres unmarked) [Example 164, 7-cyclopropyl-5-(1-((3-(1-methyl-1H-pyrazol-4-yl)-1H-indazol-5-yl)oxy)ethyl)qui noline]: the IC50 at FGFR3 (setting [2]) lay within 1 to 10 nM.

As to `Cc1ccc2ncccc2c1C(C)Oc1ccc2[nH]nc(-c3cn(C)nn3)c2c1` (centres unmarked) [Example 165, 6-methyl-5-(1-((3-(1-methyl-1H-1,2,3-triazol-4-yl)-1H-indazol-5-yl)oxy)ethyl)qui noline], on FGFR3 (setting [2]), the IC50 was in the range of 10 to 100 nM. Compound `C#Cc1ccc2ncccc2c1C(C)Oc1ccc2[nH]nc(-c3cnn(C)c3)c2c1` (centres unmarked) [Example 166, 6-ethynyl-5-(1-((3-(1-methyl-lH-pyrazol-4-yl)-1H-indazol-5-yl)oxy)ethyl)quinoline] showed an IC50 at FGFR3 of 10 to 100 nM.

For the compound `CC(Oc1ccc2[nH]nc(-c3cnn(C)c3)c2c1)c1c(Cl)ccc2ncccc12` (centres unmarked) [Example 167, 6-chloro-5-(1-((3-(1-methyl-1H-pyrazol-4-yl)-1H-indazol-5-yl)oxy)ethyl)qu inoline], on FGFR3 (setting [2]), the IC50 was in the range of 10 to 100 nM.

Consider `CC(Oc1ccc2[nH]nc(-c3cnn(C)c3)c2c1)c1c(C(F)(F)F)ccc2ncccc12` (centres unmarked) [Example 172, 5-(1-((3-(1-methyl-1H-pyrazol-4-yl)-1H-indazol-5-yl)oxy)ethyl)-6-(trifluoromethyl)quinoline], for which the IC50 on FGFR3 (setting [2]) was 10 to 100 nM.

Turning to `COc1cc(OC(C)c2nc(C)cc3nccnc23)cc2c(-c3cnn(C)c3)n[nH]c12` (centres unmarked) [Example 231, 5-(1-((7-methoxy-3-(1-methyl-1H-pyrazol-4-yl)-1H-indazol-5-yl)oxy)ethyl)-7-methylpyrido[3,4-b]pyrazine], the IC50 on FGFR3 (setting [2]) lay within 1 to 10 nM. As to `CC(Oc1ccc2[nH]nc(-c3cnn(C)c3)c2c1)c1nc(C#N)cc2nccnc12` (centres unmarked) [Example 235, 5-(1-((3-(1-methyl-1H-pyrazol-4-yl)-1H-indazol-5-yl)oxy)ethyl)pyridino[3,4-b]pyr azine-7-carbonitrile], the concentration for half-maximal inhibition (IC50) on FGFR3 (setting [2]) fell in the range of 10 to 100 nM.

Values taken from patent EP4644383A1 (Jiangsu Yahong Meditech Co., Ltd., priority 2022, dated 2024).
